Like-named read-outs stand apart in the source and are kept apart here.

Data set [1] deals with PDGFRa (Homo sapiens, UniProt P16234). In words: Inhibition profile at 500 nM: PDGFRa. The format is biochemical. The following applies: 500 nM test compound, read-out: Percent inhibition PDGFRa. The method, then: (§1) Then enzyme substrate is added as 10 μl of 2.5×FAM-labeled peptide+ATP solution to each well of the 384-well assay plate The reaction is allowed to proceed at 28° C. and quenched with the addition of 25 μl of stop buffer. The release of fluorescent FAM is quantitated as Percent inhibition=(max−conversion)/(max−min)*100.sp; “max” stands for DMSO control; “min” stands for low control. Convert conversion values to inhibition values. Percent inhibition=(max−conversion)/(max−min)*100. “max” stands for DMSO control; “min” stands for low control.

Data set [2] concerns the target LCK (Homo sapiens, UniProt P06239). Description: Inhibition profile at 500 nM: LCK. The format is biochemical. As to conditions: 500 nM test compound, read-out: Percent inhibition LCK. The method, then:
as §1

In data set [3] the target is SRC (Homo sapiens, UniProt P12931). In words: Inhibition profile at 500 nM: SRC. The format is biochemical. The following applies: 500 nM test compound, read-out: Percent inhibition SRC. Here is the method:
as §1

For data set [4], the target named is ABL (Homo sapiens, UniProt P00519). Description: Inhibition profile at 500 nM: ABL / Abl1. As to conditions: 500 nM test compound, Table 1. The format is biochemical. Here is the method: as §1
Data set [5] has as its target FLT3 (Homo sapiens, UniProt P36888). Description: Inhibition profile at 500 nM: FLT3. The format is biochemical. As to conditions: 500 nM test compound, read-out: Percent inhibition FLT3. The method, then: as §1
Data set [6] has as its target KIT (Homo sapiens, UniProt P10721). Description: Inhibition profile at 500 nM: KIT. The format is biochemical. As to conditions: 500 nM test compound; Table 1; read-out: Percent inhibition KIT. The method, then:
as §1

Data set [7] concerns the target PDGFRb (Homo sapiens, UniProt P09619). In words: Inhibition profile at 500 nM: PDGFRb. The format is biochemical. The following applies: 500 nM test compound, read-out: Percent inhibition PDGFRb. Here is the method:
as §1

Data set [8] concerns the target FGR (Homo sapiens, UniProt P09769). In words: Inhibition profile at 500 nM: FGR. The format is biochemical. As to conditions: 500 nM test compound, read-out: Percent inhibition FGR. The method, then: as §1
In data set [9] the target is LYNA (Homo sapiens, UniProt P07948). In words: Inhibition profile at 500 nM: LYNA. The format is biochemical. As to conditions: 500 nM test compound, read-out: Percent inhibition LYNA. The method, then: as §1
Data set [10] deals with ARG/Abl2 (Homo sapiens, UniProt P42684). Description: Inhibition profile at 500 nM: ARG/Abl2. The format is biochemical. As to conditions: 500 nM test compound. The method, then:
as §1

Data set [11] deals with FES (Homo sapiens, UniProt P07332). Description: Inhibition profile at 500 nM: FES. The format is biochemical. The following applies: 500 nM test compound, read-out: Percent inhibition FES. The method, then: as §1
Data set [12] deals with FYN (Homo sapiens, UniProt P06241). Description: Inhibition profile at 500 nM: FYN. The format is biochemical. The following applies: 500 nM test compound, read-out: Percent inhibition FYN. Here is the method:
as §1

In data set [13] the target is JNK2 (Homo sapiens, UniProt P45984). In words: Inhibition profile at 500 nM: JNK2. The format is biochemical. As to conditions: 500 nM test compound, read-out: Percent inhibition JNK2. Here is the method:
as §1

Data set [14] in a line: Pharmacokinetic parameters in Sprague-Dawley rats. Details: AUC(0-t): concentration or dose not given beside the values. The following applies: rat, in vivo. The method, then: Various pharmacokinetic parameters of the compounds described herein were measured in Sprague-Dawley rats.
A short description of data set [15]: Human liver microsome stability. The format is in vitro ADME. As to conditions: human liver microsomes; read-out: Human liver microsome t1/2.
Data set [16] can be described thus: Serum protein binding. The following applies: rat. The format is in vitro ADME.
Data set [17] deals with mice treated with MPTP. Description: Mouse MPTP neurotoxicity model. The format is in vivo. The following applies: for dopamine levels (protection of dopamine-secreting neurons): HPLC-ECD, FIG. 4; for pole test latency: day 14, FIG. 3, control about 5 seconds, MPTP about 30. The method, then:
Certain compounds of the present invention were evaluated using the MPTP neurotoxicity model. MPTP causes oxidative stress, which in turn causes c-Abl1 and/or c-Abl2 phosphorylation in the SNpc of mice treated with MPTP. MPTP administration according to this model produces a reliable, irreversible loss of DA neurons 7 days after the last injection, similar to that observed in PD. MPTP causes greater loss of DA neurons in SNpc and degeneration of DA nerve terminals in the caudate putamen. Many of the cell death signaling events observed in PD postmortem tissue are present in the MPTP model including oxidative stress, nitrosative stress, c-Abl activation, Parkin inactivation and PARIS and AIMP2 elevation and PARP activation. […] Because the model is relatively rapid, this model was used to assess dosing for future studies, and as a preliminary measure of efficacy.
The study design is depicted in FIG. 1. […] Wild type mice (n=5 per group) were divided into 4 treatment groups as follows: saline, MPTP, Drug and MPTP+Drug. Saline and MPTP groups were pre-treated with drug vehicle (unbuffered water) (20 animals total). Drug and MPTP+Drug groups received the test compounds for 6 days administered by oral gavage daily. On the seventh day, the saline and Drug groups received four intra-peritoneal (i.p.) injections of saline at 2 h intervals. The MPTP and MPTP+Drug groups received four intraperitoneal (i.p.) injections of MPTP·HCl (20 mg/kg free base) at 2 hr intervals. After the MPTP injection day, mice were treated for an additional 6 days with saline or an ATK inhibitor of the present invention. Mice in the saline and MPTP only groups received saline vehicle while the Drug and MPTP+Drug groups received an additional week of drug treatment. On the 14th day, mice were given a pole test, then sacrificed. Brain samples were processed for analysis of biogenic amine concentrations, including dopamine (DA), by high-performance liquid chromatography with electrochemical detection (HPLC-ECD). Loss of DA and its metabolites in the striatum is a consistently reliable indication of loss of DA neurons in the SNpc.

Data set [18] concerns A53T synuclein mice. In words: Functional rescue in mutated alpha-synuclein model. The format is in vivo. As to conditions: A53T mutant alpha-synuclein mice. An excerpt:
The A53T mutant of alpha-synuclein is a clinically identified mutation that leads to hyper aggregation of alpha-synuclein in mice, and recapitulates the symptoms of Parkinson's disease such as dopaminergic neuron loss.
This effect is believed to be due to the compound blocking formation of the toxic form of A53T-alpha-synuclein by inhibiting c-Abl.

In data set [19] the test system is Mice injected with pre-formed alpha-synuclein fibrils. Description: Functional rescue in alpha-synuclein fibril model. The format is in vivo. An excerpt:
Injection of pre-formed alpha-synuclein fibrils is known to induce Parkinson's-like disease in mice. […] This effect is believes to be due to the compound blocking the formation of toxic pre-formed-fibril alpha synuclein by inhibiting c-Abl.

Data set [20] deals with c-Abl1 (Homo sapiens, UniProt P00519). In words: Inhibition of Abelson protein kinase c-Abl1 (FAM-labeled peptide assay, IC50). The format is biochemical. The method, then: (§2) Mix the compounds in intermediate plate for 10 min on shaker. For the assay of enzyme inhibitions, 5 μl of each well from the intermediate plate is transferred to a 384-well plate in duplicates, 10. […] Then enzyme substrate is added as 10 μl of 2.5×FAM-labeled peptide+ATP solution to each well of the 384-well assay plate The reaction is allowed to proceed at 28° C. and quenched with the addition of 25 μl of stop buffer. The release of fluorescent FAM is quantitated as Percent inhibition=(max−conversion)/(max−min)*100. “max” stands for DMSO control; “min” stands for low control. Data are fit in XLFit excel add-in version 4.3.1 to obtain IC50 values. Equation used is: Y=Bottom+(Top−Bottom)/(1+(IC50/X)^HillSlope).

Data set [21] addresses c-Abl2 (Homo sapiens, UniProt P42684). In words: Inhibition of Abelson protein kinase c-Abl2 (FAM-labeled peptide assay, IC50). The format is biochemical. The method, then: as §2
For data set [22], the target named is YES (Homo sapiens, UniProt P07947). Description: Inhibition profile at 500 nM: YES. The format is biochemical. The following applies: 500 nM test compound; Table 2; read-out: Percent inhibition YES. Here is the method:
as §1

In data set [23] the target is JNK1 (Homo sapiens, UniProt P45983). In words: Inhibition profile at 500 nM: JNK1. The format is biochemical. The following applies: 500 nM test compound; Table 2; read-out: Percent inhibition JNK1. The method, then:
as §1

The test system of data set [24] is CMT. Description: Inhibition profile at 500 nM: CMT. The format is biochemical. The following applies: 500 nM test compound; Table 2. The method, then:
as §1

Data set [25] has as its system animal models of Parkinson's Disease. The following applies: literature (J. Neurosci. 31(1); Scientific Reports 4:4874); cited from earlier work.
Data set [26] relates to mice treated with MPTP. The following applies: known ATK inhibitors, background statement; cited from earlier work.

ARG/Abl2, sequence (P42684 whole entry): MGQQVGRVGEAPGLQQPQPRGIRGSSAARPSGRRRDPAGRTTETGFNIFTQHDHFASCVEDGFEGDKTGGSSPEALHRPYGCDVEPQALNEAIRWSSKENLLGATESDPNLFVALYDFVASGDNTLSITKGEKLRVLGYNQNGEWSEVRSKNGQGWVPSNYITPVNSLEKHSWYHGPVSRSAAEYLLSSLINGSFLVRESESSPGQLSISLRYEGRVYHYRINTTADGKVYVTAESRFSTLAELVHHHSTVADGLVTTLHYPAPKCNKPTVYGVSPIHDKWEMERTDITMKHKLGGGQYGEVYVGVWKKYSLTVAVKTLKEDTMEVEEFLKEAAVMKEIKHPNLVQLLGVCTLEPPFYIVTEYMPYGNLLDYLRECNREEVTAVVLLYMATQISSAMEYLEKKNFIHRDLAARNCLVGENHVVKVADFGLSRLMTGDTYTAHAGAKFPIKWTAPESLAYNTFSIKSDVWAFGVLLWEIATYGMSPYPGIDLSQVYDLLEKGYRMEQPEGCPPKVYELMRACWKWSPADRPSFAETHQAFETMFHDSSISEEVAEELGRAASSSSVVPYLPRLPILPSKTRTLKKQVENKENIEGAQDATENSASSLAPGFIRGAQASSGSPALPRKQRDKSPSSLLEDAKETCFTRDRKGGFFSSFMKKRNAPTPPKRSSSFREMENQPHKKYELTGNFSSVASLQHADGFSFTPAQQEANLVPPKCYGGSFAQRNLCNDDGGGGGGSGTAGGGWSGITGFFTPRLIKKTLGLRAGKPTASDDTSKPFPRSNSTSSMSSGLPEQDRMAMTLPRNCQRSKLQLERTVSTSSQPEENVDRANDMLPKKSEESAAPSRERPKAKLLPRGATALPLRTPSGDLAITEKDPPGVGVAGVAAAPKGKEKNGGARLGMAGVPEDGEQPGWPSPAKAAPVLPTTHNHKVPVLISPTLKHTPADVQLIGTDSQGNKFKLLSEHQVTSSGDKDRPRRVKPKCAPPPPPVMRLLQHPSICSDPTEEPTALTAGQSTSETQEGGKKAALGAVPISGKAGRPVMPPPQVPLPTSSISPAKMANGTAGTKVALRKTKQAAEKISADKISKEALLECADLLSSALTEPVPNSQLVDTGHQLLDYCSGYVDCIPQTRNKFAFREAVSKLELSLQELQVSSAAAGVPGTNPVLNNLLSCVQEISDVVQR
FGR, sequence (P09769 whole entry): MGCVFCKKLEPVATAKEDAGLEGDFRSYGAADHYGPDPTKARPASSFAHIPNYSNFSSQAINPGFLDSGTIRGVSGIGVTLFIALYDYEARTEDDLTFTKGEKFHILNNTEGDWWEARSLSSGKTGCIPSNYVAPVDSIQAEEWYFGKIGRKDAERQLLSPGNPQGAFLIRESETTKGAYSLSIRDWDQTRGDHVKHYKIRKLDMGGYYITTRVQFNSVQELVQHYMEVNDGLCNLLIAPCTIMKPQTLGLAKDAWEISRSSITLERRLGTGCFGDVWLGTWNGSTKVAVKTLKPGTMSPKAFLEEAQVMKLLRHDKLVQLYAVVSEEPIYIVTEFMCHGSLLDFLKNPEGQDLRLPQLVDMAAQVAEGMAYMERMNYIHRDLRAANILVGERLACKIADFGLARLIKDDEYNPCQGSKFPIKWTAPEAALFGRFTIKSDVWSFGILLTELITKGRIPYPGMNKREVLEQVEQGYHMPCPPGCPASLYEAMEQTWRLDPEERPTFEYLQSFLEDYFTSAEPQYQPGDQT
JNK2, sequence (P45984 whole entry): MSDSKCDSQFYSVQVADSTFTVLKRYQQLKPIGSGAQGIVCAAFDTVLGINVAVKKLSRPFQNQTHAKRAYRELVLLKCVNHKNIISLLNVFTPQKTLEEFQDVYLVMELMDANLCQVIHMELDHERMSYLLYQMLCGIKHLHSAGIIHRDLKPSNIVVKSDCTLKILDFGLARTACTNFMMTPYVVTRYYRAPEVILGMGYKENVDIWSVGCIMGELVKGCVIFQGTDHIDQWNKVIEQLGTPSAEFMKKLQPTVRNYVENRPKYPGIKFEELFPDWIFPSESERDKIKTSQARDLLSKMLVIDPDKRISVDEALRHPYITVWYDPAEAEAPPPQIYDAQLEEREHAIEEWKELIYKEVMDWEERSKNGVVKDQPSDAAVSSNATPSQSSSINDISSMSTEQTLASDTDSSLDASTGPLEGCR
LCK, sequence (P06239 whole entry): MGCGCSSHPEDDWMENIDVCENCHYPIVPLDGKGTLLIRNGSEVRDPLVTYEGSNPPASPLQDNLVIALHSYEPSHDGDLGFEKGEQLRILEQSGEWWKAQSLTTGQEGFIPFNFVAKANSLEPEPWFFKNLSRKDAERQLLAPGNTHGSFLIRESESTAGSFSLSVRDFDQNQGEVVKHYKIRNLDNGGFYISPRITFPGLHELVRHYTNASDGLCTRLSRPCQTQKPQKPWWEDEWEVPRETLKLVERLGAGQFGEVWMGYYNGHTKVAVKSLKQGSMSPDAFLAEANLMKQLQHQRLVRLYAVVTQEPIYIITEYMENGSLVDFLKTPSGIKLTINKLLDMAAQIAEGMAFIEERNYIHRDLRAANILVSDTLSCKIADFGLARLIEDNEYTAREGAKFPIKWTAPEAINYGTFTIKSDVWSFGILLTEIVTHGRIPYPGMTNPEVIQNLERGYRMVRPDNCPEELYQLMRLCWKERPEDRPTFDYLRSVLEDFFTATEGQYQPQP
SRC, sequence (P12931 whole entry): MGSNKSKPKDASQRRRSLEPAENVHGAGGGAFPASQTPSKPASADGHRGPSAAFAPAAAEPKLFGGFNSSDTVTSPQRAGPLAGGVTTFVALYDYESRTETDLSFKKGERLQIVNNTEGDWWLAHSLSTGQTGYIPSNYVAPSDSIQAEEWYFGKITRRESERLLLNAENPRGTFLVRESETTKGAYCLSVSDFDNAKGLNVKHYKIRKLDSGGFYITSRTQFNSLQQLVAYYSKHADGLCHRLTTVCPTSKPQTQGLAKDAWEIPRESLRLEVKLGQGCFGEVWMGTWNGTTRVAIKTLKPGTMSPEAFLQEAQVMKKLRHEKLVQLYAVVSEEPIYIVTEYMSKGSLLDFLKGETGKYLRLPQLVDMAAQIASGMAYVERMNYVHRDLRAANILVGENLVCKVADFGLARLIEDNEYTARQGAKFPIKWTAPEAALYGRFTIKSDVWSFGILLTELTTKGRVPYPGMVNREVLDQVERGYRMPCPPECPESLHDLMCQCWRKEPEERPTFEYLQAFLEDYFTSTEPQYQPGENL
PDGFRb, sequence (P09619 33-1106): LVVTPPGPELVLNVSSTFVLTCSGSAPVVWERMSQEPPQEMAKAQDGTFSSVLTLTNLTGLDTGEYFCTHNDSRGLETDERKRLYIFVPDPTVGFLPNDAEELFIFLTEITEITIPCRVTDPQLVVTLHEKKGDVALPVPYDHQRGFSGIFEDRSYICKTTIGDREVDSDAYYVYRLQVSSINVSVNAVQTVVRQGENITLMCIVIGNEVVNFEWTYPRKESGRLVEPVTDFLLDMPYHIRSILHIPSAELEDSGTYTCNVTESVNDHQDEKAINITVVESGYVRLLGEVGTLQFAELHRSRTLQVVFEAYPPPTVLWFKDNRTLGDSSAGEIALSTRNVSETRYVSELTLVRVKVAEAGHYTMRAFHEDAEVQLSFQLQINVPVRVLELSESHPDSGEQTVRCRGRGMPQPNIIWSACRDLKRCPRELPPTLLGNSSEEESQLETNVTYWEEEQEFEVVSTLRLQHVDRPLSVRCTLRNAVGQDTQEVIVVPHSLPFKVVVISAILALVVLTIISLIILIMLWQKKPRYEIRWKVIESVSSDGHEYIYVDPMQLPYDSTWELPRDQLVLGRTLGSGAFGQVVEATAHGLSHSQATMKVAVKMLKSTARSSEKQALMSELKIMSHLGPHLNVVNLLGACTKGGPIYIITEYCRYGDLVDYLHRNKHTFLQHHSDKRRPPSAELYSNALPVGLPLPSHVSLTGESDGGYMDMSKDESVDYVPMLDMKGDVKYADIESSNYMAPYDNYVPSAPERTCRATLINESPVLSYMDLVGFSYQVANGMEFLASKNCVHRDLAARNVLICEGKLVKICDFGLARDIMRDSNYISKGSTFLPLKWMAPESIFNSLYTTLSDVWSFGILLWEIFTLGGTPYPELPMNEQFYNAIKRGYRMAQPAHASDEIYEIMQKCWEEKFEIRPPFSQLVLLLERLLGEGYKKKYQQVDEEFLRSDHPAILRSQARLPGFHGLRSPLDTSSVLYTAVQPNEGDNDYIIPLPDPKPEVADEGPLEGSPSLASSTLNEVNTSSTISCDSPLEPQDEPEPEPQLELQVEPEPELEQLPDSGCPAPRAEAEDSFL
FYN, sequence (P06241 whole entry): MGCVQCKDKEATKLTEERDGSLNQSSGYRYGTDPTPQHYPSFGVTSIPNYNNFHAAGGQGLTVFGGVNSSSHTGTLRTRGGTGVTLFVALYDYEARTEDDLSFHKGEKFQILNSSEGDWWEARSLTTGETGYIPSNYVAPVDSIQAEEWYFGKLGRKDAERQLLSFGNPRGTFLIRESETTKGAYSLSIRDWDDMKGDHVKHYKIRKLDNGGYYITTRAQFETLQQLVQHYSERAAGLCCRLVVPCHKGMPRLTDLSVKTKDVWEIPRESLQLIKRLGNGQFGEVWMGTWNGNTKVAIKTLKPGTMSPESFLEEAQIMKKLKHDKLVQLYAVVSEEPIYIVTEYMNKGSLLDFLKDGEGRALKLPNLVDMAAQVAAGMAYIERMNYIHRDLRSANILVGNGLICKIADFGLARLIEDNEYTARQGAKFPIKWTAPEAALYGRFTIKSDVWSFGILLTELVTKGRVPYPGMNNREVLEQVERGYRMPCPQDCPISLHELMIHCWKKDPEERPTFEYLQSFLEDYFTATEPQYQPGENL
c-Abl2, sequence (P42684 whole entry): as the sequence (P42684 whole entry) above

Turning to `Cc1ccc(NC(=O)c2ccc(CN3CCN(C)CC3)cc2)cc1Nc1nccc(-c2cncc(-c3ccn[nH]3)c2)n1` [Compound 107], the inhibition at 0.5 µM worked out at 59% in [1] (Table 1); 95% in data set [2] (Table 1); 28% in data set [3] (Table 1); 91% in [4] (read-out: Percent inhibition ABL); 51% in [5] (Table 1); 99% in data set [6]. Further, the inhibition at 0.5 µM was determined as 101% in data set [7] (Table 1); 82% in [8] (Table 1); 93% in data set [9] (Table 1); 87% in data set [10] (Table 1, read-out: Percent inhibition ARG/Abl2); 28% in [11] (Table 1); 69% in [12] (Table 1). The inhibition at 0.5 µM in [13] (Table 1) was determined as 1.7%.
Take `Cc1cc(-c2cncc(-c3ccnc(Nc4cc(NC(=O)c5ccc(CN6CCN(C)CC6)cc5)ccc4C)n3)c2)on1` [Compound 207]: in data set [14], the AUC(0-t) amounted to 1650 ± 1080 ng·h/mL, the Cmax came to 225 ± 83.8 ng/mL, the time of peak concentration (Tmax) came out at 5.3 ± 1.2 h and the Vd came out at 6.5 ± 0.96 L/kg. In [14], the bioavailability came out at 32%, the clearance is 33.3 mL/min/kg and the half-life is 3.1 h. In [15], the half-life was 0.292 h. The compound further had a fraction unbound in [16] of 0.141. In addition, in data set [17], the “dopamine levels (protection of dopamine-secreting neurons)” value is reported as “protected dopamine-secreting neurons from degeneration” and the pole test latency entry is given as “recovered to a near-normal latency time”.
For the compound `Cc1ccc(NC(=O)c2ccc(CN3CCN(C)CC3)cc2)cc1Nc1nccc(-c2cncc(-n3cccn3)c2)n1` [Compound 303], the “Percent inhibition ABL” value in data set [4] was found to be 79%. In data set [10] (Table 1), the “Percent inhibition ARG/Abl2” value is on record as 62%.
With `Cc1ccc(NC(=O)c2ccc(CN3CCN(C)CC3)cc2)cc1Nc1nccc(-c2cncc(-c3oncc3C)c2)n1` [Compound 809], in data set [14], the AUC(0-t) was found to be 1060 ng·h/mL, the maximum concentration (Cmax) was found to be 170 ng/mL, the Tmax came to 4 h and the Vd was determined as 7.2 L/kg. In data set [14], the bioavailability is 24%, the clearance was 45 mL/min/kg and the half-life was 2.2 h. In [15], the half-life was 0.364 h. In data set [16], this compound showed a fraction unbound of 0.143. For the same compound, in data set [17], the “dopamine levels (protection of dopamine-secreting neurons)” value is reported as “protected dopamine-secreting neurons from degeneration” and the pole test latency entry was “recovered to a near-normal latency time”. The “dopaminergic neuron loss in A53T synuclein mice” value in data set [18] is given as “fail to display the characteristics of dopaminergic neuron loss”. Further, in data set [19], the “Parkinson's-like disease after pre-formed alpha-synuclein fibrils” value is recorded as “fail to exhibit Parkinson's like disease”.
On to `Cc1ccc(NC(=O)c2ccc(CN3CCN(C)CC3)cc2)cc1Nc1nccc(-c2cncc(-c3cnns3)c2)n1` [Compound 8230], for which the 50% inhibitory concentration (IC50) in data set [20] and in data set [21] was > 1000 nM throughout.
Regarding `Cc1ccc(NC(=O)c2ccc(CN3CCN(C)CC3)cc2)cc1Nc1nccc(-c2cncc(-c3snnc3C)c2)n1` [Compound 8240], the IC50 in [20] and in data set [21] was > 1000 nM in each case.
With `Cc1ccc(NC(=O)c2ccc(CN3CCN(C)CC3)cc2)cc1Nc1nccc(-c2cncc(-c3cnn(C)c3)c2)n1` [Compound 8300], the inhibition at 0.5 µM in data set [22] worked out at 63%; in data set [1] (Table 2), 99%; in data set [2] (Table 2), 97%; in [3] (Table 2) it was 45%; in [5] (Table 2), 61%; in data set [7] (Table 2), 98%. For the same compound, the inhibition at 0.5 µM is 81% in data set [8] (Table 2); 108% in data set [9] (Table 2); 89% in data set [10] (Table 2, read-out: Percent inhibition Abl2); 19% in data set [11] (Table 2); 90% in data set [12] (Table 2); 30% in data set [13] (Table 2). Moreover, the inhibition at 0.5 µM in data set [23] was found to be 35%. Further, the “Percent inhibition CMT” value in data set [24] stood at 88%.
For `Cc1cn(-c2cc(NC(=O)c3ccc(C)c(Nc4nccc(-c5cccnc5)n4)c3)cc(C(F)(F)F)c2)cn1` [nilotinib], in [25], the “effectiveness in animal models of Parkinson's Disease” value is on record as “appear effective”. Besides, the “neuroprotection in the acute MPTP-induced model of PD” value in data set [26] is on record as “provide neuroprotection”.

Values taken from patent US12629371B2, “Compositions and methods for inhibiting kinases” (Inhibikase Therapeutics, Inc., priority 2016, dated 2026).
